Reference: US20030203969A1, “Pharmaceutically active aromatic guanylhydrazones” (priority 2000, published 2003)

What was measured:
Assay type in all cases: cell-based
[1] = test system: macrophage-tropic HIV-1Ba-L strain; assay: Inhibition of macrophage-tropic HIV-1 Ba-L replication in de novo infected PM1 cells (p24 antigen); conditions: d10
Protocol: (§1) HIV replication was measured either by p24 HIV Antigen Capture Assay Kit (ELISA; HIVAG-1 Monoclonal kit BIA011; Abbott) following the manufacturer's recommendation, or by using the Quantiplex HIV-1 RNA 3.0 Assay (bDNA) system (Chiron Diagnostics). The latter assay is a signal amplification nucleic acid probe assay (employing a sandwich nucleic acid hybridization procedure) for direct quantitation of HIV RNA in human plasma. There, in brief, HIV-1 is first concentrated from plasma by centrifugation. After release of genomic HIV-1 RNA from the virions, the RNA is captured to a microwell by a set of specific, synthetic oligonucleotide capture probes. A set of target probes hybridize to both the viral RNA and the pre-amplifier probes. The capture probes, comprised of 17 individual capture extenders, and the target probes, comprised of 81 individual target extenders, bind to different regions of the pol gene of the viral RNA. The amplifier probe hybridizes to the pre-amplifier forming a branched DNA (bDNA) complex. Then, multiple copies of an alkaline phosphatase labeled probe are hybridized to this immobilized bDNA complex. Detection is achieved by incubating the entire complex with a chemoluminescent substrate. Light emission is directly proportional to the amount of HIV-1 RNA present in each sample, and results are recorded as relative light units by an appropriate analyzer.
Jurkat cells (species: human T-cell leukemia; special characteristics: cells are permissive for growth of T-cell tropic HIV strains; source:ATCC Cat.No. TIB 152) or PM1 cells (species: clonal derivative of human HUT 78 cells; special characteristics: cells are permissive for growth of macrophage-tropic and T-cell tropic HIV strains; source: Dr. Marvin Reitz, courtesy of the NIH AIDS Research and Reference Reagent Program Cat.No. 3038) were stimulated with Phytohemagglutinin (PHA-P, Product No. L9132 from Sigma) in a concentration of 2 μg/ml (1.5×10^6 cells/ml) and Hexadimethrine Bromide (Polybrene, Product No. H9268 from Sigma) in a concentration of 2 μg/ml (1.5×10^6 cells/ml) in RPMI 1640 medium containing 10% fetal calf serum (FCS, Pansystems GmbH) and antibiotics for 3 days.
For HIV-1 infection, 5×10^7 cells were resuspended in 500 μl culture medium without test drugs and incubated in a 50 ml blue-cap-tube at 37° C. for 5 hrs with HIV-1 high titer viral stocks. Jurkat cells were infected with the T-cell tropic strain HIV-1 NL4-3, PM1 cells with the macrophage tropic strain HIV-1 Ba-L (both from the NIH AIDS Research and Reference Reagent Program). After infection, cells were washed twice with PBS without Ca^2+ and Mg^2+ to avoid false positive p24 antigen determination. Cells were resuspended, and identical aliquots (1×10^6/ml) of infected cells were further cultured in 10 ml medium with test drugs at various concentrations, or in medium with DMSO as control for calculation of the inhibition of virus replication (in %].
Culture medium was changed and cells were split at days 3 and 7 of the experiments. Viability of the cells (Trypan-blue staining), cell counts and p24 antigen levels were determined at days 3, 7 and 10 of the experiments. No significant differences in cell viability were observed (˜85-90% living cells).
At day 10 of infection, the HIV strains replicated vigorously in untreated cultures. Numbers describe percent inhibition of HIV replication as compared to control experiments.

NNRTI-resistant HIV-1 = assay: Inhibition of multiple anti-retroviral drug resistant HIV-1 strains: NNRTI-resistant
Protocol: In addition, various different “types” of multiple anti-retroviral drug resistant HIV-1 strains were also tested: […]

clinical HIV-1 isolates = assay: Inhibition of clinical HIV-1 isolates in PBMCs from HIV-1-infected patients; conditions: d14
Protocol: as §1
Peripheral blood mononuclear cells (PBMCs) from HIV-1-infected patients were isolated—(after informal consent was given)—by Biocoll (Biochrom) gradient centrifugation. 1×10^6/ml PBMCs were cultured (5 ml in a six well 32-mm plate) in presence of the test drugs or in DMSO (control diluent) in RPMI 1640 medium supplemented with 10% autologous serum and 2 mM L-Glutamine at 37° C. and 5% CO2.
The culture medium was changed every 3 days during the experiments. Once a week, each culture was split 1:1 and 2×10^6 feeder-PBMCs (per well) and recombinant Interleukin 2 (IL-2) [10U/ml] (Roche) was added. Prior to addition to the cell cultures, the feeder-PBMCs, prepared from 4 healthy donors, were treated for 4 days with PHA-P and PB (2 μg/ml each per 2×10^6 cells). At day 14, viability of the PBMCs (Trypan-blue staining), cell count and virus load (p24 antigen: Innotest HIV Antigen mAb, Innogenetics N. V., Gent, Belgium, or bDNA: HIV-1 RNA 3.0 Assay, Bayer AG, Tarrytown, N.Y., USA) was determined. No significant differences in cell viability were observed (˜75-80% vital cells).
At day 14 of cultivation, the virus replicated vigorously in all untreated cultures. Numbers describe percent inhibition of HIV-1 replication as compared to control experiments.

E. Coli XL-1 blue strain = assay: Growth assay for E. coli (optical density at 610 nm); conditions: LB medium, 37° C., one day; read-out: IC50 (μM) E. coli proliferation
Protocol: We used the E. Coli XL-1 blue strain (Stratagene) for the investigation of antibacterial activity. During this experiments LB medium was used for E. coil growth. LB was prepared as follows: 1% trypton (weight/volume), 0.5% Yeast extract (weight/volume), and 1.5% NaCl (weight/volume) were dissolved in water and autoclaved. The media contained the inhibitor at 100 μM, 10 μM, or 1 μM concentrations, respectively.
The assay was performed as follows: bacteria were seeded to 96-well plates containing the respective inhibitors. The bacteria-containing plates were incubated at 37° C. for one day. After incubation time, E. coli growth was assayed by the measurement of the optical density at 610 nm wavelength.

CC(=NNC(=N)N)c1cc(NC(=O)CCCCCCCCC(=O)Nc2cc(C(C)=NNC(=N)N)cc(C(C)=NNC(=N)N)c2)cc(C(C)=NNC(=N)N)c1 [Compound 4, N,N′-bis (3,5-diacetylphenyl) decane diamide tetrakis (amidinohydrazone)]
percent inhibition of HIV replication as compared to control ([1]; 0.5 μM): 82% | percent inhibition of HIV replication as compared to control ([1]; 1.0 μM): 73% | [%] inhibition of virus replication (NNRTI-resistant HIV-1; NNRTI-resistant HIV-1, 0.5 μM): 71% | [%] inhibition of virus replication (NNRTI-resistant HIV-1; NNRTI-resistant HIV-1, 1.0 μM): 82% | percent inhibition of HIV-1 replication as compared to control (clinical HIV-1 isolates; HIV-infected PBMCs from patient 1, 0.5 μM): 91.6% | percent inhibition of HIV-1 replication as compared to control (clinical HIV-1 isolates; HIV-infected PBMCs from patient 1, 1.0 μM): 90.7% | percent inhibition of HIV-1 replication as compared to control (clinical HIV-1 isolates; HIV-infected PBMCs from patient 2, 0.5 μM): 85.8% | percent inhibition of HIV-1 replication as compared to control (clinical HIV-1 isolates; HIV-infected PBMCs from patient 2, 1.0 μM): 97.6% | percent inhibition of HIV-1 replication as compared to control (clinical HIV-1 isolates; HIV-infected PBMCs from patient 3, 0.5 μM): 91% | percent inhibition of HIV-1 replication as compared to control (clinical HIV-1 isolates; HIV-infected PBMCs from patient 3, 1.0 μM): 90% | IC50 (E. Coli XL-1 blue strain): 1 µM
